Active and inactive are the calls of the source. The calls are words filed in the database; no cut-off is given here.

The term IC50 denotes the concentration that gives 50% inhibition. For orientation: ED50 means the dose that gives a 50% effect, or the effect in half of the subjects. A word on the inhibition: it is the drop in the measured response relative to a control, in per cent. Read a high inhibition as a strong effect.

For one assay, the species on record is Oryctolagus cuniculus. Description: Test against PAF-induced aggregation of rabbit platelets in vitro. It is filed as functional.
For assay [1], the system named is Rattus norvegicus. Description: Antiallergic activity in the rat PCA assay following oral administration 1 hour before antigen challenge. Five animals were used in this experiment. Format: functional.
In assay [2] the test system is Cavia porcellus. The assay can be described thus: Ability to inhibit histamine phase of antigen-induced bronchoconstriction in vivo in pulmonary function assays in which Guinea pigs were dosed orally 5 hours prior to test. Format: functional. The conditions noted are these: po.
Assay [3] concerns the target T1, Polyunsaturated fatty acid 5-lipoxygenase (Homo sapiens) (UniProt P09917).
T1 sequence (whole entry): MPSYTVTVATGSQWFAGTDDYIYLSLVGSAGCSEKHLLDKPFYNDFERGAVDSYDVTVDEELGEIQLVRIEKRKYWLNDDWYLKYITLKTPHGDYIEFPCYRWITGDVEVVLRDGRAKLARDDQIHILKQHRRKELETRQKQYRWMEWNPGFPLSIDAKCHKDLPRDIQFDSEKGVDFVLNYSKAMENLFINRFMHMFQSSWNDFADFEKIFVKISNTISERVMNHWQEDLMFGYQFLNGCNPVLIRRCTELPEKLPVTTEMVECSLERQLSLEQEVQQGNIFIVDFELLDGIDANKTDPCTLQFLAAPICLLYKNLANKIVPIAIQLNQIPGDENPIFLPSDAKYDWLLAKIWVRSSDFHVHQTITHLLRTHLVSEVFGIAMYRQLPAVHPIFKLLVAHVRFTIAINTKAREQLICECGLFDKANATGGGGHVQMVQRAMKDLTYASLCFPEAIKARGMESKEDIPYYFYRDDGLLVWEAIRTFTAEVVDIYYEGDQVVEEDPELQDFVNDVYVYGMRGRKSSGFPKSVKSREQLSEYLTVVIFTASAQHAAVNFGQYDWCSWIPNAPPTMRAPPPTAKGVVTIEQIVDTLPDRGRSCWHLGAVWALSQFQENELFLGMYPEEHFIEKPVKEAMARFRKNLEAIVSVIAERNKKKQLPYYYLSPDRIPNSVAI
Description: (§1) Inhibitory activity uM. The conditions noted are these: Cavia porcellus; concentration not given here.

The species named for assay [4] is Rattus norvegicus. The assay can be described thus: Inhibition of cutaneous histamine reaction in rats. It is filed as functional.
For assay [5], the species on record is Cavia porcellus. Description: Ability to inhibit histamine-induced contractions of isolated guinea pig ileum. Format: functional.
The test system of assay [6] is Cavia porcellus. Description: Ability to inhibit histamine phase of platelet activating factor (PAF)-induced bronchoconstriction in vivo in pulmonary function assays in which Guinea pigs were dosed orally 5 hours prior to test. The settings on record: po. It is filed as functional.
The test system of assay [7] is Cavia porcellus. The assay can be described thus: Ability to inhibit histamine phase of antigen-induced bronchoconstriction in vivo in pulmonary function assays in which Guinea pigs were dosed orally 5 hours prior to test at 10 uM/kg; Not active. Format: functional, organism-based.
For assay [8], the target named is T1, Polyunsaturated fatty acid 5-lipoxygenase (Homo sapiens). The assay is described as §1. The conditions noted are these: Cavia porcellus; concentration not given here. Format: functional.
Assay [9] is filed under the species Cavia porcellus. The assay can be described thus: Ability to inhibit histamine-induced contractions of isolated guinea pig ileum at 10e-6 M; Not active. Format: functional.
Assay [10] has as its target T1, Polyunsaturated fatty acid 5-lipoxygenase (Homo sapiens). The assay can be described thus: Inhibitory activity against partially-purified Guinea pig PMN 5-lipoxygenase at 10 uM. The conditions noted are these: Cavia porcellus, target entry is the homologue from another species.

For `CCCCC1CCc2cc(O)cc3c(CCN4CCN(c5cc(C)ccn5)CC4)c(C)n1c23` (stereo not drawn), the results for the IC50 in the assay listed under Oryctolagus cuniculus and in the assay listed under Cavia porcellus [5] were 2000 nM and 260 nM, respectively. In addition, the ED50 with Rattus norvegicus [1] is 0.9 µmol/kg; in the assay on Cavia porcellus [2], 1.9 µmol/kg; in the assay listed under Rattus norvegicus [4], 2.8 µmol/kg; in the assay with Cavia porcellus [6] it was 2.1 µmol/kg. Besides, the inhibition in assay [3] came out at 100%.
For `CC(c1cc2ccccc2s1)N(O)C(N)=O` (stereo not drawn), the ED50 entry in the assay with Cavia porcellus [7] was “inactive”.
Turning to `CN1CCCC(n2nc(Cc3ccc(Cl)cc3)c3ccccc3c2=O)CC1` (stereo not drawn) [AZELASTINE], the IC50 in the assay listed under Oryctolagus cuniculus was greater than 100000 nM; in the assay listed under Cavia porcellus [5], 20 nM. Moreover, the ED50 with Rattus norvegicus [1] is 7 µmol/kg; in the assay filed under Rattus norvegicus [4] it was 3.3 µmol/kg.
For the molecule `CN1CCC(=C2c3ccccc3CC(=O)c3sccc32)CC1` [KETOTIFEN], the 50% inhibitory concentration (IC50) in the assay listed under Oryctolagus cuniculus was greater than 100000 nM; in the assay listed under Cavia porcellus [5], 6.4 nM. Also, the results for the ED50 in the assay on Rattus norvegicus [1], in the assay on Cavia porcellus [2] and in the assay listed under Rattus norvegicus [4] were 0.44 µmol/kg, 0.31 µmol/kg and 0.16 µmol/kg, respectively.
`Cc1ccnc(N2CCN(CCc3c(C)n4c5c(cc(N)cc35)CCC4)CC2)c1`: the results for the IC50 in the assay filed under Oryctolagus cuniculus and in the assay filed under Cavia porcellus [5] were 84000 nM and 80 nM, respectively. Besides, in assay [8], the inhibition was determined as 64%. For the same molecule, in the assay filed under Rattus norvegicus [4], the ED50 was found to be 2.5 µmol/kg.
On to `O=C(c1ccccc1)c1cccc(NC(=O)c2ccn3c2CS[C@@H]3c2cccnc2)c1` [TULOPAFANT], for which the IC50 entry in the assay filed under Cavia porcellus [9] is reported as “Not Active”. Further, the ED50 result with Cavia porcellus [7] is “inactive”. The molecule also yielded an ED50 in the assay with Cavia porcellus [6] of 5.5 µmol/kg.
In the case of `Cc1ccnc(N2CCN(CCc3c(C)n4c5c(cc(C(=O)C(C)C)cc35)CCC4)CC2)c1`, the IC50 in the assay filed under Oryctolagus cuniculus worked out at 1900 nM; in the assay filed under Cavia porcellus [5] it was 37 nM. In assay [10], the inhibition stood at 36%. Moreover, it took a dose of 2.9 µmol/kg to reach the 50% effect level in the assay filed under Rattus norvegicus [4] (ED50).

Source of the values: ChEMBL document CHEMBL1128244, “Synthesis, structure-activity relationships, and pharmacological evaluation of pyrrolo[3,2,1-ij]quinoline derivatives: potent histamine and platelet activating factor antagonism and 5-lipoxygenase inhibitory properties. Potential therapeutic application in asthma” (J Med Chem, 1995).
